# Experimental data: ChEMBL document CHEMBL1130546, “Oligopresentation of protease inhibitors with -cyclodextrin as template” (Bioorg Med Chem Lett, 1997)
# pKi: −log10 of the molar value. Where a SMILES comes first, the peptide text is derived from it. [ ]: non-standard residue; d: D form. Nle = CCCC[C@H](N)C(=O)O
# Key:
# Cathepsin B = Cathepsin B (Homo sapiens, UniProt P07858); test: Equilibrium dissociation constant for the inhibition of human cathepsin B was determined
# [1] = biological target: T1, Calpain-1 catalytic subunit (Homo sapiens, UniProt P07384); test: Equilibrium dissociation constant for the inhibition of human Mu-calpain was determined
# T1 sequence (P07384 whole entry): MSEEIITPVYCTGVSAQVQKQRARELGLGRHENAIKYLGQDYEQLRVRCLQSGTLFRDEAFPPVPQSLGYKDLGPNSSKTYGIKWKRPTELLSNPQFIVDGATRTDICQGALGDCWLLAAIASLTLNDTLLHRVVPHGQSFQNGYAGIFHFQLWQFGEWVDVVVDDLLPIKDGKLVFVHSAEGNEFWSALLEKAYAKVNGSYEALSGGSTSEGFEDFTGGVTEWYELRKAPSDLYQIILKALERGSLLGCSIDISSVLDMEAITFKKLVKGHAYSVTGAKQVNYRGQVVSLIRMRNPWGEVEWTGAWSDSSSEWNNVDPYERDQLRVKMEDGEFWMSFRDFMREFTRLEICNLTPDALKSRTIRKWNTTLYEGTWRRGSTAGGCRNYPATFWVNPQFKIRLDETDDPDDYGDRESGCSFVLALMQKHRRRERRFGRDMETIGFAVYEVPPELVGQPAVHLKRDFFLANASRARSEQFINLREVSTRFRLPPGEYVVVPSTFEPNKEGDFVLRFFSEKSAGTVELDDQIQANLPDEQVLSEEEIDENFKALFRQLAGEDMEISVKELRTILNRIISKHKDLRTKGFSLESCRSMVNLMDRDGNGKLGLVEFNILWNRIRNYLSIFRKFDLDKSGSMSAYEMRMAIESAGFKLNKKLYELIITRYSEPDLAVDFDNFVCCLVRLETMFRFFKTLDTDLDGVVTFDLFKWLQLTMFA
smiles,measurement,setting,value
CCCC[C@H](NC(=O)[C@H](CC(C)C)NC(=O)[C@H](CC(C)C)NC(C)=O)C(=O)O (Ac-Leu-Leu-[Nle]-OH),pKi,Cathepsin B,9.00
same,pKi,[1],8.47
